{"source": "paper PMC6027464", "about": "“Separation, Identification, and Antidiabetic Activity of Catechin Isolated from Arbutus unedo L. Plant Roots” (Plants, 2018)", "molecular_target": "α-glucosidase", "assay": "p-NPG hydrolysis assay with commercial enzyme (Sigma-Aldrich), absorbance at […] nm", "type": "biochemical", "data": [{"smiles": "Oc1cc(O)c2c(c1)O[C@H](c1ccc(O)c(O)c1)[C@@H](O)C2", "note": "[Catechin]", "values": [{"measurement": "α-Glucosidase Inhibitory Activity IC50 (μg/mL), ±SD", "result": "87.55 ± 2.23", "unit": "µg/mL"}]}]}
